Data published in publication PMC3905170, “Synthesis and structure evaluation of new complex butylarylpiperazin-1-yl derivatives” (Medicinal Chemistry Research, 2013).
Where two headings read alike, the source gives them in different places.

Legend:
MT-4 cells = experiment: Cytotoxicity assay in MT-4 cells (MTT method); format: cell-based, human
Experimental: (§1) Cell line and viruses were purchased from the American Type Culture Collection (ATCC). The absence of mycoplasma contamination was checked periodically by the Hoechst staining method. Cell line supporting the multiplication of human immunodeficiency virus type-1 (HIV-1) was the CD4+ human T-cells containing an integrated HTLV-1 genome (MT-4). Cytotoxicity assays were run in parallel with antiviral assays. Exponentially growing MT-4 cells were seeded at an initial density of 1 × 10^5 cells/ml in 96-well plates in RPMI-1640 medium, supplemented with 10 % fetal bovine serum (FBS), 100 units/ml penicillin G, and 100 μg/ml streptomycin. Cell cultures were then incubated at 37 °C in a humidified 5 % CO2 atmosphere in the absence or presence of serial dilutions of test compounds. Cell viability was determined after 96 h at 37 °C by the 3-(4,5-dimethylthiazol-2-yl)-2,5-diphenyl-tetrazolium bromide (MTT) method (Pauwels et al., [1988]).

HIV-1IIIB = experiment: Anti-HIV-1 assay: inhibition of virus-induced cytopathogenicity in MT-4 cells (MTT method); format: cell-based, human immunodeficiency virus type-1; conditions: MT-4 cells infected with HIV-1IIIB, m.o.i. 0.01, 4-day incubation, read-out: EC50: compound concentration required to achieve 50 % protection of MT-4 cells from the HIV-1-induced cytopathogenicity
Text: Cell line and viruses were purchased from the American Type Culture Collection (ATCC). The absence of mycoplasma contamination was checked periodically by the Hoechst staining method. Cell line supporting the multiplication of human immunodeficiency virus type-1 (HIV-1) was the CD4+ human T-cells containing an integrated HTLV-1 genome (MT-4).
Compound’s activity against HIV-1 was based on inhibition of virus-induced cytopathogenicity in MT-4 cell acutely infected with a multiplicity of infection (m.o.i.) of 0.01. In brief, 50 μl of RPMI containing 1 × 10^4 MT-4 cells were added to each well of flat-bottom microtitre trays, containing 50 μl of RPMI with or without serial dilutions of test compounds. Then, 20 μl of a HIV-1 suspension containing 100 CCID50 was added. After a 4-day incubation at 37 °C, cell viability was determined by the MTT method (Pauwels et al., [1988]).

[1] = Cytotoxicity assay in MT-4 cells (MTT method); format: cell-based, human; conditions: human; mock-infected MT-4 cells, 96 h, MTT method; read-out: CC50: compound concentration required to reduce the viability of mock-infected MT-4 cells by 50 %
Experimental: as §1

5-HT1A receptor = target: T1, 5-HT1A receptor (Rattus norvegicus, UniProt P19327); experiment: In vitro ligand binding assay with native 5-HT1A receptor
T1 construct: Ligand studies with native 5-HT1A receptor; from tissue
T1 sequence (P19327 1-422): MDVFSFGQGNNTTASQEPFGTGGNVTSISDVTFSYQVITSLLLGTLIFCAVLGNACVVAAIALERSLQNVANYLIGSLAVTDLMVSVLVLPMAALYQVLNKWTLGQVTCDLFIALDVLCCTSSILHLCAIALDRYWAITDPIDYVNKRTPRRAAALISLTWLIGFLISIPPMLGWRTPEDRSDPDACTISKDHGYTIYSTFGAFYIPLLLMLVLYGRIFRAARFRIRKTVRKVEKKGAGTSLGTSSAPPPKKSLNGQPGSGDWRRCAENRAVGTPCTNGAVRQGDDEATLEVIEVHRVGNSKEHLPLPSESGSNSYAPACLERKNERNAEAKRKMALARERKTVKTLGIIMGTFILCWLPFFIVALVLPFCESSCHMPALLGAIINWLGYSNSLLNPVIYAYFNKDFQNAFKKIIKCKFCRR
Experimental: Ligand studies with native 5-HT1A receptor were conducted according to the methods previously described (Lewgowd et al., [2011]).

[2] = Human immunodeficiency virus 1, MT4, 96 h

`O=c1cccc2cc3c(-c4ccccc4)c4c(=O)n(CCCCBr)c(=O)c4c(-c4ccccc4)c3c1-2` gave a melting point of 241 to 242 °C.

With “2-{4-[4-(2-Fluorophenyl)piperazin-1-yl]butyl}-4,10-diphenyl-1H,2H,3H,5H-indeno[1,2-f]isoindole-1,3,5-trione [Compound 15]” the CC50 (MT-4 cells) was over 100 µM and the EC50 (HIV-1IIIB) was over 100 µM.

In the case of “2-{4-[4-(4-Fluorophenyl)piperazin-1-yl]butyl}-4,10-diphenyl-1H,2H,3H,5H-indeno[1,2-f]isoindole-1,3,5-trione [Compound 16]”, the CC50 (MT-4 cells) is reported as over 100 µM and the EC50 (HIV-1IIIB) is reported as over 100 µM.

With “4,10-Diphenyl-2-[4-(4-phenylpiperazin-1-yl)butyl]-1H,2H,3H,5H-indeno[1,2-f]isoindole-1,3,5-trione [Compound 12]” the CC50 (MT-4 cells) was over 100 µM and the EC50 (HIV-1IIIB) was over 100 µM.

In the case of “4,10-Diphenyl-2-[4-(4-{2-[2-(trifluoromethyl)phenyl]ethyl}piperazin-1-yl)butyl]-1H,2H,3H,5H-indeno[1,2-f]isoindole-1,3,5-trione [Compound 14]”, the CC50 (MT-4 cells) is reported as 9 µM and the EC50 (HIV-1IIIB) is reported as over 9 µM.

For “4,10-Diphenyl-2-{4-[4-(pyridin-2-yl)piperazin-1-yl]butyl}-1H,2H,3H,5H-indeno[1,2-f]isoindole-1,3,5-trione [Compound 13]”, the CC50 (MT-4 cells) was over 100 µM and the EC50 (HIV-1IIIB) was over 100 µM.

Work on `O=C1C2C(C(=O)N1CCCCN1CCN(c3ccccn3)CC1)C1(c3ccccc3)C(=O)C2(c2ccccc2)c2c1c1ccccc1c1ccccc21` (stereo not drawn) [Compound 3, 1,16-Diphenyl-19-(4-(4-pyridin-2-ylpiperazin-1-yl)butyl)-19-azahexacyclo-[14.5.1.0^2,15.0^3,8.0^9,14.0^17,21]docosa-2,3,5,7,8,9,11,13,14-nonaene-18,20,22-trione] yielded a CC50 at 96 h [1] of 90 µM, an EC50 (HIV-1IIIB; [2]) of over 90 µM and a melting point of 200 to 203 °C.

With `COc1ccccc1N1CCN(CCCCN2C(=O)C3C(C2=O)C2(c4ccccc4)C(=O)C3(c3ccccc3)c3c2c2ccccc2c2ccccc32)CC1` (stereo not drawn) [Compound 4, 19-(4-(4-(2-(Methyloxy)phenyl)piperazin-1-yl)butyl)-1,16-diphenyl-19-azahexa-cyclo[14.5.1.0^2,15.0^3,8.0^9,14.0^17,21]docosa-2,3,5,7,8,9,11,13,14-nonaene-18,20,22-trione] the “activity to the 5-HT1A receptor” value (5-HT1A receptor) was “moderate activity” and the melting point was 197 to 200 °C.

Compound `O=C1C2C(C(=O)N1CCCCN1CCN(c3ccc(Cl)cc3)CC1)C1(c3ccccc3)C(=O)C2(c2ccccc2)c2c1c1ccccc1c1ccccc21` (stereo not drawn) [Compound 6, 19-(4-(4-(4-Chlorophenyl)piperazin-1-yl)butyl)-1,16-diphenyl-19-azahexacyclo-[14.5.1.0^2,15.0^3,8.0^9,14.0^17,21]docosa-2,3,5,7,8,9,11,13,14-nonaene-18,20,22-trione] has a CC50 at 96 h [1] of over 100 µM, an EC50 (HIV-1IIIB; [2]) of over 100 µM and a melting point of 220 to 221 °C.

For `O=C1C2C(C(=O)N1CCCCN1CCN(c3ccccc3F)CC1)C1(c3ccccc3)C(=O)C2(c2ccccc2)c2c1c1ccccc1c1ccccc21` (stereo not drawn) [Compound 7, 19-(4-(4-(2-Fluorophenyl)piperazin-1-yl)butyl)-1,16-diphenyl-19-azahexacyclo-[14.5.1.0^2,15.0^3,8.0^9,14.0^17,21]docosa-2,3,5,7,8,9,11,13,14-nonaene-18,20,22-trione], the CC50 at 96 h [1] was over 100 µM, the EC50 (HIV-1IIIB; [2]) was over 100 µM and the melting point was 205 to 207 °C.

With `CC(=O)c1ccc(N2CCN(CCCCN3C(=O)C4C(C3=O)C3(c5ccccc5)C(=O)C4(c4ccccc4)c4c3c3ccccc3c3ccccc43)CC2)cc1` (stereo not drawn) [Compound 8, 19-(4-(4-(4-Acetylphenyl)piperazin-1-yl)butyl)-1,16-diphenyl-19-azahexacyclo-[14.5.1.0^2,15.0^3,8.0^9,14.0^17,21]docosa-2,3,5,7,8,9,11,13,14-nonaene-18,20,22-trione] the CC50 at 96 h [1] was over 100 µM, the EC50 (HIV-1IIIB; [2]) was over 100 µM and the melting point was 202 to 204 °C.

In the case of `O=c1[nH]c(=O)c2c(-c3ccccc3)c3c(c(-c4ccccc4)c12)c(=O)c1ccccc13` [Compound 10, 4,10-diphenyl-1H,2H,3H,5H-indeno[1,2-f]isoindole-1,3,5-trione], the CC50 (MT-4 cells) is reported as 9 µM and the EC50 (HIV-1IIIB) is reported as over 9 µM.

With `O=c1c2ccccc2c2c(-c3ccccc3)c3c(=O)n(CCCCN4CCN(c5ccc(Cl)cc5)CC4)c(=O)c3c(-c3ccccc3)c12` [Compound 17, 2-{4-[4-(4-Chlorophenyl)piperazin-1-yl]butyl}-4,10-diphenyl-1H,2H,3H,5H-indeno[1,2-f]isoindole-1,3,5-trione] the CC50 (MT-4 cells) was over 100 µM and the EC50 (HIV-1IIIB) was over 100 µM.

Compound `O=c1c2ccccc2c2c(-c3ccccc3)c3c(=O)n(CCCCN4CCN(c5ccccc5Cl)CC4)c(=O)c3c(-c3ccccc3)c12` [Compound 18, 2-{4-[4-(2-Chlorophenyl)piperazin-1-yl]butyl}-4,10-diphenyl-1H,2H,3H,5H-indeno[1,2-f]isoindole-1,3,5-trione] has a CC50 (MT-4 cells) of over 100 µM and an EC50 (HIV-1IIIB) of over 100 µM.

With `COc1ccccc1N1CCN(CCCCn2c(=O)c3c(-c4ccccc4)c4c(=O)c5ccccc5c4c(-c4ccccc4)c3c2=O)CC1` [Compound 19, 2-{4-[4-(2-metoxyphenyl)piperazin-1-yl]butyl}-4,10-diphenyl-1H,2H,3H,5H-indeno[1,2-f]isoindole-1,3,5-trione] the CC50 at 96 h [1] was over 100 µM, the EC50 (HIV-1IIIB; [2]) was over 100 µM and the melting point was 245 to 246 °C.

`O=C1Nc2ccc(Cl)cc2[C@@](C#CC2CC2)(C(F)(F)F)O1` [Efavirenz, reference compound] gave a CC50 at 96 h [1] of 45 µM and an EC50 (HIV-1IIIB; [2]) of 0.002 µM.
